According to a melting point compilation (Tetko et al.; mined from patent text by program, amines drawn as free bases though some values may be those of a salt):

SMILES	melting point [°C]
CCC1(CC)OC(=O)C(Cn2cncn2)(c2ccc(Cl)cc2)O1 (stereo not given)	105 to 108
Cc1nc2ccc(NC3=NCCN3)c(Br)c2nc1C	252 to 254
CCCCCCN(CCCCCC)c1ccc(C2=C(C#N)C(=C(C#N)C#N)OC2(C)C)s1	134
N#Cc1cccc(-c2ccc(O)c(C=O)c2)c1	139 to 140
CN(C(=O)CCCOc1ccc([N+](=O)[O-])c(C=O)c1)C1CCCCC1	98 to 100
CCN(CC)CC1CCCCN1CCCCN1c2ccccc2C(=O)Nc2cccnc21 (stereo not given)	112
O=C(O)c1c(Cl)c([N+](=O)[O-])cc([N+](=O)[O-])c1Nc1ccc(OCc2ccccc2)cc1	208 to 211
COc1ccc(C2(Cl)CC(CNC(C)(C)C)=Nc3sc4c(c32)CCNC4)cc1OC (stereo not given)	162 to 163
CN(C)C(=O)N1CCc2ccc(Nc3nc4c(-c5cc(Cl)ccc5OCC(F)F)cccn4n3)cc2CC1	98 to 99
CCOc1cc(CCCOc2c(C)cc(-c3noc(C4CC4)n3)cc2C)on1	70 to 71
Oc1c(Br)cc(-c2c3ccccc3c(I)c3sc4ccccc4c23)cc1Br	221 to 222
Oc1ccc2c(c1)CCCC2n1cc[nH]c1=S (stereo not given)	213 to 215
O=C(c1ccccc1)c1ccc(OC(=O)C2CCCCC2)cc1	111 to 112
CNC(=O)c1cc(C#N)cc(C)c1NC(=O)c1cc(C(F)(F)F)nn1-c1ncccc1Cl	214 to 216
CSC1Oc2cccc3cccc(c23)C1=O (stereo not given)	89 to 91
COc1cc2ncnc(N3CCN(C(=S)NCc4ccc(N(C)C)cc4)CC3)c2cc1OC	177 to 178
Cc1ncc2cccc(O)c2n1	135 to 137
Cc1cccc(C(C#N)N2CCOCC2)c1 (stereo not given)	59 to 60
CC(=O)NCCNC(=O)CCCCC1CCSS1 (stereo not given)	145 to 146
Brc1ccc(Oc2ccc(-n3ccnc3)nn2)cc1	168

SMILES	melting point [°C]
Cc1ccc2nc(C)c(CCN3CCC(c4noc5cc(F)ccc45)CC3)c(=O)n2c1	187
Cc1cc(C)nc(Sc2ccnc3cc(Cl)ccc23)n1	127 to 130
COc1ccccc1CN[C@H]1CCCN(Cc2ccccc2)[C@H]1c1ccccc1 (relative stereo)	68 to 70
Clc1ccc(C=Cc2ccccc2)cc1	129 to 130
COC(C)(C)c1ccc(Cl)c2nc3n(c12)CCCN3c1ccc(Cl)cc1Cl	203 to 204
c1ccc(OCCSCc2nnc(-c3ccc(OCCN4CCCCC4)cc3)o2)cc1	70
CCc1nnc(-c2ccc(OC)cc2)n1-c1ccc(N(C)C)cc1	136
CSC(=C[N+](=O)[O-])Nc1ccc(C#N)cc1	188 to 190
Cc1ccc2c(Cl)ccnc2c1[N+](=O)[O-]	140 to 147
COc1ccc(N2CCN(c3ccc([N+](=O)[O-])nc3)CC2)cc1	186 to 188
COc1ccc2sc(C(N)=O)c(Sc3ccccc3)c2c1	194 to 196
Cn1nc2c(N)nc3ccccc3c2c1CC1(F)CCOCC1	252 to 254
Cn1nnnc1-c1cn(C)c2cc(N3CCCCC3)ccc2c1=O	180 to 183
N=C(Nc1ccccc1)Nc1ncccc1OCc1c(Cl)cccc1Cl	163 to 165
Clc1cccc2cc3cccc(Cl)c3cc12	155
O=CN(O)C1(CS(=O)(=O)c2ccc(Oc3ccc(OC(F)(F)F)cc3)cc2)CCC2(CC1)OCCO2	133 to 134
CCCCCCn1c(C)c(C(=O)N(CCCC)CCCC)c2c(CN3CCCCC3)c(O)c(C(=O)CC)cc21	124 to 125
COc1ccc(Cn2ccnc2C=Cc2ccc([N+](=O)[O-])o2)cc1	151 to 152
CCSc1cc(C)nc(SCC)c1NC(=O)CCCCCCCCSc1nc2c(C)c(Cl)cc(C(C)C)c2o1	93 to 94
Cc1ccc2occ(CC3=NOS(=O)N3)c2c1 (stereo not given)	152 to 153

SMILES	melting point [°C]
CC(C)Oc1ccccc1-c1cc(=O)c2cc(C#N)ccc2o1	172 to 175
CCc1nccn1Cc1ccc2c(c1)Cc1c(-c3ccsc3)n[nH]c1-2	129 to 132
Cc1oc(-c2ccccc2)nc1COc1ccc(COc2cccnc2CO)cc1	118 to 119
CCOC(=O)c1cc2c(C)c(F)ccc2[nH]1	148 to 149
Cc1cccc2c1-n1cnnc1SC2	234
CCCn1nc2c(N)nc3c(c2c1CCC1CCCCC1)CCCC3	173 to 174
NC(=O)C1(CCCNC2CC2)c2ccccc2-c2ccccc21	163 to 165
CCCOc1cc2c(=O)c3ccccc3sc2cc1Cl	101 to 102
CCc1c(Br)c2ccccn2c1C(=O)c1ccc(O)cc1	160 to 162
O=[N+]([O-])c1cc(I)cc(CO)c1	85.5 to 86.5
Cc1cc2n[nH]c(=O)n2nc1-c1ccc(C#N)cc1	> 300
COc1ccccc1N1Sc2ccccc2C(c2ccccc2)C1=O (stereo not given)	133
COc1cccc2c1C(O)CC21CCN(CCCC(=O)c2ccc(F)cc2)C1 (stereo not given)	152 to 154
COc1cc(C)c(Cl)cc1C(C)=O	83
O=C1N=C(N2CCOCC2)SC1c1cncc(-c2cc3c(c(C45CC6CC(CC(C6)C4)C5)c2)OCO3)c1 (stereo not given)	255 to 258
CC(C)S(=O)(=O)N1C[C@@H](c2c[nH]c3ccccc23)[C@H](c2cn3c4c(cccc24)CCC3)C1	100 to 115
OCc1cccc(Nc2ncc3c(n2)-c2ccccc2[C@H](c2ccccc2F)C3)c1	158 to 159
CCCCCCCN(CCCCCSc1nc(-c2ccc(OC)cc2)c(-c2ccc(OC)cc2)[nH]1)c1nc2ccccc2[nH]1	78 to 80
CCCc1nc2c(N)nc3cc(-c4cccc(CN)c4)ccc3c2s1	168 to 171
O=C(O)c1cc(-c2ccc(Br)cc2)nc(-c2ccc(Br)cc2)c1	292 to 294

Next, values leading:

melting point [°C]	SMILES
185 to 187	CCOc1nc2cc(N)ccc2c(=O)o1
295	CC(=O)Nc1nc(N)c2ncn(C3OC(C(O)C(=O)O)C(O)C3O)c2n1 (stereo not given)
99 to 104	Cc1cccc(S(=O)(=O)n2cccn2)c1C#N
110 to 129	O=C(Nc1ccc(Cl)cc1C(=NO)c1ccccc1)C(F)Cl (stereo not given)
350	Nc1nc2c(ncn2COCC=O)c(=O)[nH]1
110 to 111	COC(=O)c1cc2c3ccccc3n(CC3CC3)c2s1
139 to 141	N=C(N)c1c[nH]c2ccc(CCNC(=O)c3ccc(-c4ccnc(N5CCCC5C(N)=O)n4)cc3)cc12 (stereo not given)
274 to 276	CCn1c(=O)c(C#N)c(O)c2ccc(C)nc21
207 to 208	CN(CCCNC1=CC(=O)c2sc(C(=O)N3CCOCC3)nc2C1=O)CCCNC1=CC(=O)c2sc(C(=O)N3CCOCC3)nc2C1=O
172 to 173	CCOC(=O)c1ccc(Nc2ncccc2NS(=O)(=O)c2ccc(OC)cc2)cc1
191 to 193	COC(=O)c1ccc(C2C(C#N)=C(CC(C)C)NC(C)=C2C(=O)OC(C)(C)C)cc1 (stereo not given)
185	Cc1ccc(C)c(Oc2oc(-c3ccc(Cl)cc3)nc2CC(=O)O)c1
111	CC(C)(C)C(=O)CCSC(=S)Nc1ccc(Cl)cn1
135 to 140	O=C1CCC2CC(O)C(=O)N12 (stereo not given)
99 to 101	CC(C)C[C@H](NC(=O)c1cccc2c1Nc1ccccc1S2)C(=O)N[C@H]1CCOC1O (stereo not given in full)
97 to 99	CC(C)(C)OC(=O)c1nn(-c2ccc(F)cc2F)c2c1C1CCC2C1 (stereo not given)
168 to 171	CCOC(=O)c1cn(C)c2cc(Cl)sc2c1=O
166 to 168	CC(=O)N1CCN(c2cc3nc(C(C)(C)C)sc3cc2[N+](=O)[O-])CC1
222 to 223	COc1cccc2nc(-c3ccc(OCCNC(C)C)c(-c4ccc(S(C)(=O)=O)cc4)n3)[nH]c(=O)c12
> 225	COc1c(C(=O)O)csc1S(=O)(=O)Oc1ccc(-c2c3ccccc3c(Br)c3sc(C)c(C)c23)cc1C1CCCC1

melting point [°C]	SMILES
212 to 214	C=CCc1ccc(OCC2CCCO2)c2c(=O)cc(C(N)=O)oc12 (stereo not given)
166 to 167	COC(=O)C(O)=CC(=O)c1ncnc2c1ncn2Cc1ccccc1
165 to 166	C=Cc1ccc(N2C[C@H](CNC(C)=O)OC2=O)cc1F
180	CS(=O)(=O)c1ccc(OC2SCC(O)C(O)C2O)cc1 (stereo not given)
246	O=C(Nc1cccc2c1C1CCCCN1C2=O)Nc1nc(Cl)c(Cl)c(Cl)c1Cl (stereo not given)
138 to 140	COc1ccc(N2C(=O)O[C@H](COC(=O)c3ccc([N+](=O)[O-])cc3)[C@@H]2C)cc1
105 to 108	COc1ccc([C@@H]2Cc3c(cccc3C(F)(F)F)N(CC3=NCCN3C(=O)OC(C)(C)C)C(=O)[C@@H]2OC(C)=O)cc1
179 to 181	Nc1ccc(C(=O)c2nccs2)cc1[N+](=O)[O-]
139 to 142	CC1(C)SCN(CCCCN2CCN(c3n[nH]c4ccccc34)CC2)C1=O
236	Cn1c(Sc2ccc(C(=O)O)c(Cl)c2)n[nH]c1=O
247 to 249	O=C(Nc1ccccn1)Nc1nc(-c2ccccc2)cs1
166 to 168	NNc1c(Cl)c(Cl)nc(C(=O)O)c1Cl
> 200	COc1cccc2c1CCN(c1nc(C)[nH]c(=O)c1[N+](=O)[O-])CC2
192 to 194	CC(C)(C)OC(=O)N(Cc1ccc(C(=O)O)cc1)c1ccc(C2CCCCC2)cc1
163 to 164	CCO[C@@H](Cc1ccc(OCCc2nc(-c3ccc(-c4ccccc4)cc3)oc2C)c2ccsc12)C(=O)O
245 to 247	CCOc1ccc(NC=C(C#N)C(=O)Nc2cc(OC)c(Cl)cc2Cl)cc1F
> 230	O=C(O)CC[C@H](NC(=O)c1ccc(CCn2cnc3nccc-3c2O)cc1)C(=O)O
104 to 106	Nc1cc(NS(=O)(=O)CCl)c(Cl)cc1F
158 to 159	CC(=O)Nc1ccc(N2CCC(=O)CC2)cc1
207	NC(=O)OC[C@@H]1[C@H](NC(=O)/C(=N\OCC(=O)O)c2csc(N)n2)C(=O)N1S(=O)(=O)O
